Tests used:
PA 100036 = experiment: Checkerboard combination study / MIC; type: cell-based, Pseudomonas aeruginosa
PA 101885 = experiment: Checkerboard combination study / MIC; type: cell-based, Pseudomonas aeruginosa
PA 259 = experiment: Checkerboard combination study / MIC; type: cell-based, Pseudomonas aeruginosa
PA 260 = experiment: Checkerboard combination study / MIC; type: cell-based, Pseudomonas aeruginosa
PA 262 = experiment: Checkerboard combination study / MIC; type: cell-based, Pseudomonas aeruginosa
PA 264 = experiment: Checkerboard combination study / MIC; type: cell-based, Pseudomonas aeruginosa
PA 91433 = experiment: Checkerboard combination study / MIC; type: cell-based, Pseudomonas aeruginosa; conditions: for MICCombination (2) / FIC2: PA 91433
PA 101243 = experiment: Checkerboard combination study / MIC; type: cell-based, Pseudomonas aeruginosa; conditions: PA 101243
PA 114228 = experiment: Checkerboard combination study / MIC; type: cell-based, Pseudomonas aeruginosa
[1] = tested on: MDR PA101885-challenged larvae; experiment: Galleria mellonella infection model, efficacy; type: in vivo
Experimental: In vivo synergistic effects were determined using Galleria mellonella infection model, as previously described (20). Briefly, worms were purchased from The Worm Lady® Live Feeder (ON, Canada), stored in their natural habitat at 16° C., and used within 10 days of delivery. The worms (average weight of 250 mg) were used for tolerability and efficacy studies. Tolerability study was performed by injecting 10 μL of antimicrobial agents only at concentrations equivalent to 100 mg/kg or 200 mg/kg. The worms (ten in each group) were incubated at 37° C. and monitored for 96 h. For efficacy studies, the virulence and bacterial load required to kill 100% of the worms within 12-18 h (with no treatment) was first determined, which is approximately 5 CFU. Overnight grown culture of respective MDR P. aeruginosa isolate was standardized to 0.5 McFarland standard and diluted in PBS to a final concentration of 5×10^2CFU/mL. 10 μL of this solution (5 CFU) was injected into each worm and incubated for 3 h at 37° C. […] Worms treated with 10 μL PBS or high concentrations of test antibiotics served as negative and positive control, respectively. The worms were incubated at 37° C. in Petri dishes lined with filter paper and scored for survivability every 6 h for up to 48 h. This experiment was repeated to give a total of thirty worms (n=30) in each case. Survival data curves were plotted using Kaplan-Meier survival analysis.

5-O-(Octylcyclam)-tobramycin.9TFA [Compound 2]
<0.0010: FIC2 (PA 91433; with CAZ) | FIC2 (PA 101243; with CEF) | FIC2 (PA 101243; with DOR)
<0.0078: FIC2 (PA 100036; with MER) | FIC2 (PA 101243; with AZT)
16 µg/mL: MICCombination (2) (PA 100036; MIC of 2 combined with CEF) | MICCombination (2) (PA 100036; MIC of 2 combined with DOR) | MICCombination (2) (PA 100036; MIC of 2 combined with PIP) | MICCombination (2) (PA 101885; MIC of 2 combined with AZT) | MICCombination (2) (PA 101885; MIC of 2 combined with CEF) | MICCombination (2) (PA 101885; MIC of 2 combined with PIP) | MICCombination (2) (PA 259; MIC of 2 combined with AZT) | MICCombination (2) (PA 259; MIC of 2 combined with CAZ) | MICCombination (2) (PA 259; MIC of 2 combined with CEF) | MICCombination (2) (PA 259; MIC of 2 combined with MER) | MICCombination (2) (PA 260; MIC of 2 combined with AZT) | MICCombination (2) (PA 260; MIC of 2 combined with PIP) | MICCombination (2) (PA 262; MIC of 2 combined with CAZ) | MICCombination (2) (PA 262; MIC of 2 combined with CEF) | MICCombination (2) (PA 262; MIC of 2 combined with DOR) | MICCombination (2) (PA 262; MIC of 2 combined with MER) | MICCombination (2) (PA 264; MIC of 2 combined with CEF) | MICCombination (2) (PA 91433; MIC of 2 combined with AZT) | MICCombination (2) (PA 91433; MIC of 2 combined with CEF) | MICCombination (2) (PA 101243; MIC of 2 combined with PIP) | MICCombination (2) (PA 114228; MIC of 2 combined with CAZ)
<0.0020: FIC2 (PA 101243; with MER) | FIC2 (PA 114228; with PIP)
0.5 µg/mL: MICCombination (2) (PA 101243; MIC of 2 combined with MER) | MICCombination (2) (PA 114228; MIC of 2 combined with PIP)
innately inactive: activity by itself against MDR PA101885 ([1]; in vitro and in vivo)
0%: survival of larvae ([1]; meropenem + compound 2, 25+25 mg/kg, after 24 h)
0.25 µg/mL: MICCombination (2) (PA 91433; MIC of 2 combined with CAZ) | MICCombination (2) (PA 101243; MIC of 2 combined with CEF) | MICCombination (2) (PA 101243; MIC of 2 combined with DOR)
<0.0313: FIC2 (PA 100036; with AZT) | FIC2 (PA 100036; with CAZ) | FIC2 (PA 101885; with CAZ) | FIC2 (PA 101885; with MER) | FIC2 (PA 260; with CEF) | FIC2 (PA 260; with DOR) | FIC2 (PA 260; with MER) | FIC2 (PA 262; with AZT) | FIC2 (PA 264; with AZT) | FIC2 (PA 264; with CAZ) | FIC2 (PA 91433; with DOR) | FIC2 (PA 114228; with MER)
1 µg/mL: MICCombination (2) (PA 259; MIC of 2 combined with PIP) | MICCombination (2) (PA 101243; MIC of 2 combined with CAZ)
8 µg/mL: MICCombination (2) (PA 100036; MIC of 2 combined with AZT) | MICCombination (2) (PA 100036; MIC of 2 combined with CAZ) | MICCombination (2) (PA 101885; MIC of 2 combined with CAZ) | MICCombination (2) (PA 101885; MIC of 2 combined with MER) | MICCombination (2) (PA 260; MIC of 2 combined with CEF) | MICCombination (2) (PA 260; MIC of 2 combined with DOR) | MICCombination (2) (PA 260; MIC of 2 combined with MER) | MICCombination (2) (PA 262; MIC of 2 combined with AZT) | MICCombination (2) (PA 264; MIC of 2 combined with AZT) | MICCombination (2) (PA 264; MIC of 2 combined with CAZ) | MICCombination (2) (PA 91433; MIC of 2 combined with DOR) | MICCombination (2) (PA 114228; MIC of 2 combined with MER)
64 fold: potentiation of meropenem (PA 91433; by compound 2, colistin-resistant clinical isolate PA91433)
85%: survival of larvae ([1]; meropenem + compound 2, 37.5+37.5 mg/kg, after 24 h)
4 µg/mL: MICCombination (2) (PA 101885; MIC of 2 combined with DOR) | MICCombination (2) (PA 260; MIC of 2 combined with CAZ) | MICCombination (2) (PA 262; MIC of 2 combined with PIP) | MICCombination (2) (PA 264; MIC of 2 combined with DOR) | MICCombination (2) (PA 264; MIC of 2 combined with MER) | MICCombination (2) (PA 264; MIC of 2 combined with PIP) | MICCombination (2) (PA 91433; MIC of 2 combined with MER) | MICCombination (2) (PA 114228; MIC of 2 combined with AZT) | MICCombination (2) (PA 114228; MIC of 2 combined with CEF) | MICCombination (2) (PA 114228; MIC of 2 combined with DOR)
<0.0156: FIC2 (PA 101885; with DOR) | FIC2 (PA 260; with CAZ) | FIC2 (PA 262; with PIP) | FIC2 (PA 264; with DOR) | FIC2 (PA 264; with MER) | FIC2 (PA 264; with PIP) | FIC2 (PA 91433; with MER) | FIC2 (PA 114228; with AZT) | FIC2 (PA 114228; with CEF) | FIC2 (PA 114228; with DOR)
100%: mortality of larvae, monotherapy ([1]; aztreonam […], meropenem 37.5 mg/kg, compound 2 100 mg/kg, after 24 h)
<0.0039: FIC2 (PA 259; with PIP) | FIC2 (PA 101243; with CAZ)
<0.0625: FIC2 (PA 100036; with CEF) | FIC2 (PA 100036; with DOR) | FIC2 (PA 100036; with PIP) | FIC2 (PA 101885; with AZT) | FIC2 (PA 101885; with CEF) | FIC2 (PA 101885; with PIP) | FIC2 (PA 259; with AZT) | FIC2 (PA 259; with CAZ) | FIC2 (PA 259; with CEF) | FIC2 (PA 259; with MER) | FIC2 (PA 260; with AZT) | FIC2 (PA 260; with PIP) | FIC2 (PA 262; with CAZ) | FIC2 (PA 262; with CEF) | FIC2 (PA 262; with DOR) | FIC2 (PA 262; with MER) | FIC2 (PA 264; with CEF) | FIC2 (PA 91433; with AZT) | FIC2 (PA 91433; with CEF) | FIC2 (PA 101243; with PIP) | FIC2 (PA 114228; with CAZ)
2 µg/mL: MICCombination (2) (PA 100036; MIC of 2 combined with MER) | MICCombination (2) (PA 101243; MIC of 2 combined with AZT)
